Key:
Experiment in all cases: Inhibitory effect of bioenhancers alone
Assay type in all cases: cell-based
Bacillus cereus RRL 02 = details: Bacillus cereus, RRL02
Salmonella typhi AIIMS 2 = details: Salmonella enterica, TYPHI, read-out: inhibitory effect
[1] = system: Escherichia coli ATCC 25922; details: Escherichia coli, ATCC25922
Candida krusei ATCC 6258 = details: Pichia kudriavzevii, ATCC6258
[2] = system: Staphylococcus aureus ATCC 29313; details: Staphylococcus aureus, ATCC29313
[3] = system: Mycobacterium intracelluare ATCC 13950; details: Mycobacterium, ATCC13950
[4] = system: Staphylococcus epidermidis ATCC 12228; details: Staphylococcus epidermidis, ATCC12228
[5] = system: Candida tropicalis ATCC 750; details: Candida tropicalis, ATCC750
[6] = system: Pseudomonas aeruginosa ATCC 27583; details: Pseudomonas aeruginosa, ATCC27583
[7] = system: Aspergillus flavus MTCC 1973; details: Aspergillus flavus, MTCC1973
[8] = system: Klebsiella pneumoniae ATCC 75388; details: Klebsiella pneumoniae, ATCC75388
[9] = system: Staphylococcus hemolyticus ATCC 29978; details: Staphylococcus, ATCC29978
[10] = system: Aspergillus fumigatus SI-1; details: Aspergillus fumigatus, SI1
[11] = system: Mycobacterium avium ATCC 49601; details: Mycobacterium avium, ATCC49601
[12] = system: Methicillin Resistant Staphylococcus aureus (MRSA); details: Staphylococcus aureus, MRSA
[13] = system: Mycobacterium tuberculosis 615; details: Mycobacterium tuberculosis, 615
[14] = system: Mycobacterium tuberculosis H37Rv; details: Mycobacterium tuberculosis, H37RV, read-out: inhibitory effect

O=C(/C=C/C=C/c1ccc2c(c1)OCO2)N1CCCCC1 [piperine]
inhibition at 0.2 µg/mL (Bacillus cereus RRL 02; conc. 0.2 μg/ml): 0%
inhibition at 0.8 µg/mL (Bacillus cereus RRL 02; conc. 0.8 μg/ml): 0%
inhibition at 3.12 µg/mL (Bacillus cereus RRL 02; conc. 3.12 μg/ml): 0%
inhibition at 12.5 µg/mL (Bacillus cereus RRL 02; conc. 12.5 μg/ml): 0%
inhibition at 50 µg/mL (Bacillus cereus RRL 02; conc. 50 μg/ml): 0%
inhibition at 100 µg/mL (Bacillus cereus RRL 02; conc. 100 μg/ml): 0%
inhibition at 0.2 µg/mL (Salmonella typhi AIIMS 2): 0%
inhibition at 0.8 µg/mL (Salmonella typhi AIIMS 2): 0%
inhibition at 3.12 µg/mL (Salmonella typhi AIIMS 2): 0%
inhibition at 12.5 µg/mL (Salmonella typhi AIIMS 2): 0%
inhibition at 50 µg/mL (Salmonella typhi AIIMS 2): 0%
inhibition at 100 µg/mL (Salmonella typhi AIIMS 2): 0%
inhibition at 0.2 µg/mL ([1]; conc. 0.2 μg/ml): 0%
inhibition at 0.8 µg/mL ([1]; conc. 0.8 μg/ml): 0%
inhibition at 3.12 µg/mL ([1]; conc. 3.12 μg/ml): 0%
inhibition at 12.5 µg/mL ([1]; conc. 12.5 μg/ml): 0%
inhibition at 50 µg/mL ([1]; conc. 50 μg/ml): 0%
inhibition at 100 µg/mL ([1]; conc. 100 μg/ml): 0%
inhibition at 0.2 µg/mL (Candida krusei ATCC 6258; conc. 0.2 μg/ml): 0%
inhibition at 0.8 µg/mL (Candida krusei ATCC 6258; conc. 0.8 μg/ml): 0%
inhibition at 3.12 µg/mL (Candida krusei ATCC 6258; conc. 3.12 μg/ml): 0%
inhibition at 12.5 µg/mL (Candida krusei ATCC 6258; conc. 12.5 μg/ml): 0%
inhibition at 50 µg/mL (Candida krusei ATCC 6258; conc. 50 μg/ml): 0%
inhibition at 100 µg/mL (Candida krusei ATCC 6258; conc. 100 μg/ml): 20%
inhibition at 0.2 µg/mL ([2]; conc. 0.2 μg/ml): 0%
inhibition at 0.8 µg/mL ([2]; conc. 0.8 μg/ml): 0%
inhibition at 3.12 µg/mL ([2]; conc. 3.12 μg/ml): 0%
inhibition at 12.5 µg/mL ([2]; conc. 12.5 μg/ml): 0%
inhibition at 50 µg/mL ([2]; conc. 50 μg/ml): 0%
inhibition at 100 µg/mL ([2]; conc. 100 μg/ml): 20%
inhibition at 0.2 µg/mL ([3]; conc. 0.2 μg/ml): 0%
inhibition at 0.8 µg/mL ([3]; conc. 0.8 μg/ml): 0%
inhibition at 3.12 µg/mL ([3]; conc. 3.12 μg/ml): 0%
inhibition at 12.5 µg/mL ([3]; conc. 12.5 μg/ml): 0%
inhibition at 50 µg/mL ([3]; conc. 50 μg/ml): 0%
inhibition at 100 µg/mL ([3]; conc. 100 μg/ml): 0%
inhibition at 0.2 µg/mL ([4]; conc. 0.2 μg/ml): 0%
inhibition at 0.8 µg/mL ([4]; conc. 0.8 μg/ml): 0%
inhibition at 3.12 µg/mL ([4]; conc. 3.12 μg/ml): 0%
inhibition at 12.5 µg/mL ([4]; conc. 12.5 μg/ml): 0%
inhibition at 50 µg/mL ([4]; conc. 50 μg/ml): 20%
inhibition at 100 µg/mL ([4]; conc. 100 μg/ml): 50%
inhibition at 0.2 µg/mL ([5]; conc. 0.2 μg/ml): 0%
inhibition at 0.8 µg/mL ([5]; conc. 0.8 μg/ml): 0%
inhibition at 3.12 µg/mL ([5]; conc. 3.12 μg/ml): 0%
inhibition at 12.5 µg/mL ([5]; conc. 12.5 μg/ml): 0%
inhibition at 50 µg/mL ([5]; conc. 50 μg/ml): 0%
inhibition at 100 µg/mL ([5]; conc. 100 μg/ml): 20%
inhibition at 0.2 µg/mL ([6]; conc. 0.2 μg/ml): 0%
inhibition at 0.8 µg/mL ([6]; conc. 0.8 μg/ml): 0%
inhibition at 3.12 µg/mL ([6]; conc. 3.12 μg/ml): 0%
inhibition at 12.5 µg/mL ([6]; conc. 12.5 μg/ml): 0%
inhibition at 50 µg/mL ([6]; conc. 50 μg/ml): 0%
inhibition at 100 µg/mL ([6]; conc. 100 μg/ml): 0%
inhibition at 0.2 µg/mL ([7]; conc. 0.2 μg/ml): 0%
inhibition at 0.8 µg/mL ([7]; conc. 0.8 μg/ml): 0%
inhibition at 3.12 µg/mL ([7]; conc. 3.12 μg/ml): 0%
inhibition at 12.5 µg/mL ([7]; conc. 12.5 μg/ml): 0%
inhibition at 50 µg/mL ([7]; conc. 50 μg/ml): 20%
inhibition at 100 µg/mL ([7]; conc. 100 μg/ml): 50%
inhibition at 0.2 µg/mL ([8]; conc. 0.2 μg/ml): 0%
inhibition at 0.8 µg/mL ([8]; conc. 0.8 μg/ml): 0%
inhibition at 3.12 µg/mL ([8]; conc. 3.12 μg/ml): 0%
inhibition at 12.5 µg/mL ([8]; conc. 12.5 μg/ml): 0%
inhibition at 50 µg/mL ([8]; conc. 50 μg/ml): 0%
inhibition at 100 µg/mL ([8]; conc. 100 μg/ml): 0%
inhibition at 0.2 µg/mL ([9]; conc. 0.2 μg/ml): 0%
inhibition at 0.8 µg/mL ([9]; conc. 0.8 μg/ml): 0%
inhibition at 3.12 µg/mL ([9]; conc. 3.12 μg/ml): 0%
inhibition at 12.5 µg/mL ([9]; conc. 12.5 μg/ml): 0%
inhibition at 50 µg/mL ([9]; conc. 50 μg/ml): 20%
inhibition at 100 µg/mL ([9]; conc. 100 μg/ml): 50%
inhibition at 0.2 µg/mL ([10]; conc. 0.2 μg/ml): 0%
inhibition at 0.8 µg/mL ([10]; conc. 0.8 μg/ml): 0%
inhibition at 3.12 µg/mL ([10]; conc. 3.12 μg/ml): 0%
inhibition at 12.5 µg/mL ([10]; conc. 12.5 μg/ml): 0%
inhibition at 50 µg/mL ([10]; conc. 50 μg/ml): 20%
inhibition at 100 µg/mL ([10]; conc. 100 μg/ml): 50%
inhibition at 0.2 µg/mL ([11]; conc. 0.2 μg/ml): 0%
inhibition at 0.8 µg/mL ([11]; conc. 0.8 μg/ml): 0%
inhibition at 3.12 µg/mL ([11]; conc. 3.12 μg/ml): 0%
inhibition at 12.5 µg/mL ([11]; conc. 12.5 μg/ml): 0%
inhibition at 50 µg/mL ([11]; conc. 50 μg/ml): 0%
inhibition at 100 µg/mL ([11]; conc. 100 μg/ml): 0%
inhibition at 0.2 µg/mL ([12]; conc. 0.2 μg/ml): 0%
inhibition at 0.8 µg/mL ([12]; conc. 0.8 μg/ml): 0%
inhibition at 3.12 µg/mL ([12]; conc. 3.12 μg/ml): 0%
inhibition at 12.5 µg/mL ([12]; conc. 12.5 μg/ml): 0%
inhibition at 50 µg/mL ([12]; conc. 50 μg/ml): 0%
inhibition at 100 µg/mL ([12]; conc. 100 μg/ml): 20%
inhibition at 0.2 µg/mL ([13]; conc. 0.2 μg/ml): 0%
inhibition at 0.8 µg/mL ([13]; conc. 0.8 μg/ml): 0%
inhibition at 3.12 µg/mL ([13]; conc. 3.12 μg/ml): 0%
inhibition at 12.5 µg/mL ([13]; conc. 12.5 μg/ml): 0%
inhibition at 50 µg/mL ([13]; conc. 50 μg/ml): 0%
inhibition at 100 µg/mL ([13]; conc. 100 μg/ml): 0%
inhibition at 0.2 µg/mL [14]: 0%
inhibition at 0.8 µg/mL [14]: 0%
inhibition at 3.12 µg/mL [14]: 0%
inhibition at 12.5 µg/mL [14]: 0%
inhibition at 50 µg/mL [14]: 0%
inhibition at 100 µg/mL [14]: 0%

From patent US7119075B2, “Use of herbal agents for potentiation of bioefficacy of anti infectives” (priority 2003, dated 2006)
